Here are results for ten compounds from patent US20240307415A1, “STEROID COMPOUND, AND PHARMACEUTICAL COMPOSITION THEREOF AND USE THEREOF” (JIANGSU SIMCERE PHARMACEUTICAL CO., LTD., priority 2021, published 2024).

SMILES strings stand for the structures.

Broadly, the EC50 is the concentration giving half of the maximal effect.

The first assay deals with K562-GRE reporter gene. The assay can be described thus: K562-GRE reporter gene activity. Type of assay: cell-based. To be noted: 24 h, read-out: K562-GRE Reporter EC50. As for the experimental part: To generate the parental K562-GRE cell line, K562 cells were seeded at 5×10^5 cells/well onto a 6-well plate (brand: Costar, Cat. No: 3516) containing 2 mL of complete medium (RPM1640, 10% FBS, penicillin-streptomycin) and cultured at 37° C. with 5% CO2 for 24 h. The next day, 3 μg of pNL2.2[NLucP/MMTV/Hygro-NANO] (Promega) and 3 μL of PLUS reagent (brand: Invitrogen, Cat. No: 11514-015) were diluted in 150 μL of Opti-MEM (brand: Gibco, Cat. No: 11058021) and incubated at room temperature for 5 min. The pNL2.2[NLucP/MMTV/Hygro-NANO] vector contains MMTV LTR (mouse mammary tumor virus long terminal repeat), which drives transcription of the luciferase reporter gene NanoLuc in response to activation of several nuclear receptors (e.g. glucocorticoid receptor and androgen receptor). After incubation, the diluted DNA solution was mixed with Lipofectamine LTX solution (brand: Invitrogen, Cat. No: 15338-100) (6 μL of Lipofectamine LTX+144 μL of Opti-MEM) in a 1:1 ratio, pre-incubated, and incubated at room temperature for 15 min to form a DNA-Lipofectamine LTX complex. After incubation, 300 μL of the DNA-Lipofectamine complex was added directly to the cell wells. The K562 cells were transfected at 37° C. with 5% CO2 for 24 h. After transfection, the cells were washed with 3 mL of PBS and selectively grown for two weeks with complete growth medium containing 125 μg/mL hygromycin B (brand: Invitrogen, Cat. No: 10687010). “K562-GRE (pNL2.2[NLucP/MMTV/Hygro-NANO])” cells were generated.
After mixing, the cells were cultured in an incubator at 37° C. for 24 h. After 24 h of incubation, an equal volume of 100 μL of Nano-Glo luciferase assay system (brand: Promega, Cat. No: N1120) was added to the cells, the mixture was reacted in a shaker at […] for 10 min, and the chemiluminescence values were detected using the PHERAstar instrument. The antibody binding curves were plotted using the logarithmic value of the antibody concentration as the abscissa and the corresponding chemiluminescence reading as the ordinate, and the EC50 value was calculated by four-parameter fitting (GraphPad Prism9).
As to `C[C@]12C=CC(=O)C=C1CC[C@@H]1[C@@H]2[C@@H](O)C[C@@]2(C)[C@H]1C[C@H]1O[C@@H](c3ccc(Cc4ccc5c(c4)NCC5)cc3)O[C@]12C(=O)CO` [Compound 004, (6aR,6bS,7S,8aS,8bS,10R,11aR,12aS,12bS)-7-hydroxy-8b-(2-hydroxyacetyl)-10-(4-(indolin-6-ylmethyl)phenyl)-6a,8a-dimethyl-6a,6b,7,8,8a,8b,11a,12,12a,12b-decahydro-1H-naphtho[2′,1′:4,5]indeno[1,2-d][1,3]dioxolan-4(2H)-one], the EC50 was 7.5 nM.

For the compound `C[C@]12C=CC(=O)C=C1[C@@H](F)C[C@H]1[C@@H]3C[C@H]4O[C@@H](c5ccc(Cc6ccc7c(c6)OCCN7)cc5)O[C@@]4(C(=O)CO)[C@@]3(C)C[C@H](O)[C@@]12F` [Compound 006, (2S,6aS,6bR,7S,8aS,8bS,10R,11aR,12aS,12bS)-10-(4-((3,4-dihydro-2H-benzo[b][1,4]oxazin-7-yl)methyl)phenyl)-2,6b-difluoro-7-hydroxy-8b-(2-hydroxyacetyl)-6a,8a-dimethyl-6a,6b,7,8,8a,8b,11a,12,12a,12b-decahydro-1H-naphtho[2′,1′:4,5]indeno[1,2-d][1,3]dioxolan-4(2H)-one], the EC50 stood at 1.7 nM.

Turning to `C[C@]12C=CC(=O)C=C1CC[C@@H]1[C@@H]2[C@@H](O)C[C@@]2(C)[C@H]1C[C@H]1O[C@@H](c3ccc(Cc4ccc(N)c5ncoc45)cc3)O[C@]12C(=O)CO` [Compound 007, (6aR,6bS,7S,8aS,8bS,10R,11aR,12aS,12bS)-10-(4-((4-aminobenzo[d]oxazol-7-yl)methyl)phenyl)-7-hydroxy-8b-(2-hydroxyacetyl)-6a,8a-dimethyl-6a,6b,7,8,8a,8b,11a,12,12a,12b-decahydro-1H-naphtho[2′,1′:4,5]indeno[1,2d][1,3]dioxolan-4(2H)-one], the half-maximal effective concentration (EC50) was determined as 2.1 nM.

Turning to `C[C@]12C=CC(=O)C=C1[C@@H](F)C[C@H]1[C@@H]3C[C@H]4O[C@@H](c5ccc(Cc6ccc(N)c7c6CCO7)cc5)O[C@@]4(C(=O)CO)[C@@]3(C)C[C@H](O)[C@@]12F` [Compound 010, (2S,6aS,6bR,7S,8aS,8bS,10R,11aR,12aS,12bS)-10-(4-((7-amino-2,3-dihydrobenzofuran-4-yl)methyl)phenyl)-2,6b-difluoro-7-hydroxy-8b-(2-hydroxyacetyl)-6a,8a-dimethyl-6a,6b,7,8,8a,8b,11a,12,12a,12b-decahydro-1H-naphtho[2′,1′:4,5]indeno[1,2-d][1,3]dioxolan-4(2H)-one], the half-maximal effective concentration (EC50) came to 1.07 nM.

Still in this assay, the particulars now being: K562-GRE cells, 24 h incubation, NanoLuc luciferase; read-out: K562-GRE Reporter EC50.
For the compound `C[C@]12C=CC(=O)C=C1CC[C@@H]1[C@@H]2[C@@H](O)C[C@@]2(C)[C@H]1C[C@H]1O[C@@H](c3ccc(Cc4ccc5nc[nH]c5c4)cc3)O[C@]12C(=O)CO` [Compound 002, (6aR,6bS,7S,8aS,8bS,10R,11aR,12aS,12bS)-10-(4-((1H-benzo[d]imidazol-6-yl)methyl)phenyl)-7-hydroxy-8b-(2-hydroxyacetyl)-6a,8a-dimethyl-6a,6b,7,8,8a,8b,11a,12,12a,12b-decahydro-1H-naphtho[2′,1′:4,5]indeno[1,2-d][1,3]dioxolan-4(2H)-one], the EC50 turned out to be 9 nM.

As to `C[C@]12C=CC(=O)C=C1CC[C@@H]1[C@@H]2[C@@H](O)C[C@@]2(C)[C@H]1C[C@H]1O[C@@H](c3ccc(Cc4ccc5cc[nH]c5c4)cc3)O[C@]12C(=O)CO` [Compound 003, (6aR,6bS,7S,8aS,8bS,10R,11aR,12aS,12bS)-10-(4-((1H-indol-6-yl)methyl)phenyl)-7-hydroxy-8b-(2-hydroxyacetyl)-6a,8a-dimethyl-6a,6b,7,8,8a,8b,11a,12,12a,12b-decahydro-1H-naphtho[2′,1′:4,5]indeno[1,2-d][1,3]dioxolan-4(2H)-one], the concentration for a half-maximal effect (EC50) was determined as 3.8 nM.

Turning to `C[C@]12C=CC(=O)C=C1CC[C@@H]1[C@@H]2[C@@H](O)C[C@@]2(C)[C@H]1C[C@H]1O[C@@H](c3ccc(Cc4ccc5c(c4)OCCN5)cc3)O[C@]12C(=O)CO` [Compound 005, (6aR,6bS,7S,8aS,8bS,10R,11aR,12aS,12bS)-10-(4-((3,4-dihydro-2H-benzo[b][1,4]oxazin-7-yl)methyl)phenyl)-7-hydroxy-8b-(2-hydroxyacetyl)-6a,8a-dimethyl-1,2,6a,6b,7,8,8a,8b,11a,12,12a,12b-decahydro-1H-naphtho[2′,1′:4,5]indeno[1,2-d][1,3]dioxolan-4(2H)-one], the concentration giving a half-maximal response (EC50) amounted to 5.6 nM.

As for `C[C@]12C=CC(=O)C=C1CC[C@@H]1[C@@H]2[C@@H](O)C[C@@]2(C)[C@H]1C[C@H]1O[C@@H](c3ccc(Cc4ccc(N)c5c4OCO5)cc3)O[C@]12C(=O)CO` [Compound 008, (6aR,6bS,7S,8aS,8bS,10R,11 aR,12aS,12bS)-10-(4-((7-aminobenzo[d][1,3]dioxolan-4-yl)methyl)phenyl)-7-hydroxy-8b-(2-hydroxyacetyl)-6a,8a-dimethyl-6a,6b,7,8,8a,8b,11a,12,12a,12b-decahydro-1H-naphtho[2′,1′:4,5]indeno[1,2-d][1,3]dioxolan-4(2H)-one], the 50% effective concentration (EC50) is 7.81 nM.

Take `C[C@]12C=CC(=O)C=C1CC[C@@H]1[C@@H]2[C@@H](O)C[C@@]2(C)[C@H]1C[C@H]1O[C@@H](c3ccc(Cc4ccc(N)c5c4CCC5)cc3)O[C@]12C(=O)CO` [Compound 011, (6aR,6bS,7S,8aS,8bS,10R,11aR,12aS,12bS)-10-(4-((7-amino-2,3-dihydro-1H-inden-4-yl)methyl)phenyl)-7-hydroxy-8b-(2-hydroxyacetyl)-6a,8a-dimethyl-6a,6b,7,8,8a,8b,11a,12,12a,12b-decahydro-1H-naphtho[2′,1′:4,5]indeno[1,2-d][1,3]dioxolan-4(2H)-one]: the EC50 was found to be 4.25 nM.

As for `CC12C=CC(=O)C=C1CCC1C2C(O)CC2(C)C1CC1OC(c3ccc(Cc4cc(N)cc5c4CCO5)cc3)OC12C(=O)CO` [Compound 012, (6aR,6bS,7S,8aS,8bS,10R,11aR,12aS,12bS)-10-(4-((6-amino-2,3-dihydrobenzofuran-4-yl)methyl)phenyl)-7-hydroxy-8b-(2-hydroxyacetyl)-6a,8a-dimethyl-6a,6b,7,8,8a,8b,11a,12,12a,12b-decahydro-1H-naphtho[2′,1′:4,5]indeno[1,2-d][1,3]dioxolan-4(2H)-one], the EC50 was found to be 9.58 nM.

The target in the next assay is Glucocorticoid Receptor GR (Homo sapiens (Human), UniProt P04150). Put plainly: Binding activity to glucocorticoid receptor GR (Polarscreen fluorescence polarization kit). As to conditions: GR full length, 2 h. On the procedure: The binding activity of the compound to GR was determined using the Polarscreen Glucocorticoid Receptor Assay Kit, Red (brand: Thermo, Cat. No: A15898). […] The highest concentration was 100 μM, 8 concentrations in total. […] With the log value of the final concentration of the compound as the X axis and the mP value as the Y axis, data was input into the processing software Graphpad Prism 9, and the EC50 value was calculated by four-parameter fitting
Sequence of Glucocorticoid Receptor GR (P04150 whole entry): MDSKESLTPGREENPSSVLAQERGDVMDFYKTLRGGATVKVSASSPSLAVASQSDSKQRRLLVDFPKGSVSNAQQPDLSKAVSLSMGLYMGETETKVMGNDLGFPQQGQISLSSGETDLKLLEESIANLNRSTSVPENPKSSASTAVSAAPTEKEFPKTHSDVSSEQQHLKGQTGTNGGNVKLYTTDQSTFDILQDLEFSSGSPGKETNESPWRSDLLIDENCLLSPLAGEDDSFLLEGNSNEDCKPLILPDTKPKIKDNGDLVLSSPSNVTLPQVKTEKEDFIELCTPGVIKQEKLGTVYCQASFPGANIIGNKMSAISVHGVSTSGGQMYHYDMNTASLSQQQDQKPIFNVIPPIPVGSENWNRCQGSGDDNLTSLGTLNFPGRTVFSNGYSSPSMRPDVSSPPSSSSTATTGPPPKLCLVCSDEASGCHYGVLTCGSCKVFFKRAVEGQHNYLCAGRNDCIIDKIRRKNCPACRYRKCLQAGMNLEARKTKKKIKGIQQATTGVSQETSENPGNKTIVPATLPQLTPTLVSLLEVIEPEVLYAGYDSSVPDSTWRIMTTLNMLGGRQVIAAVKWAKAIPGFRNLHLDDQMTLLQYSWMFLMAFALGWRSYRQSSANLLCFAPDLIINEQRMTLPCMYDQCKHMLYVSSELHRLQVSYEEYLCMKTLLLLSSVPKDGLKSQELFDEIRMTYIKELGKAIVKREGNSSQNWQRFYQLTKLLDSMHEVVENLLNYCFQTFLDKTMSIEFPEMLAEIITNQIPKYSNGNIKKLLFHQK
Take `C[C@]12C=CC(=O)C=C1CC[C@@H]1[C@@H]2[C@@H](O)C[C@@]2(C)[C@H]1C[C@H]1O[C@@H](c3ccc(Cc4ccc5c(c4)NCC5)cc3)O[C@]12C(=O)CO` [Compound 004, (6aR,6bS,7S,8aS,8bS,10R,11aR,12aS,12bS)-7-hydroxy-8b-(2-hydroxyacetyl)-10-(4-(indolin-6-ylmethyl)phenyl)-6a,8a-dimethyl-6a,6b,7,8,8a,8b,11a,12,12a,12b-decahydro-1H-naphtho[2′,1′:4,5]indeno[1,2-d][1,3]dioxolan-4(2H)-one]: the concentration for a half-maximal effect (EC50) is 42.5 nM.

For the compound `C[C@]12C=CC(=O)C=C1CC[C@@H]1[C@@H]2[C@@H](O)C[C@@]2(C)[C@H]1C[C@H]1O[C@@H](c3ccc(Cc4ccc(N)c5ncoc45)cc3)O[C@]12C(=O)CO` [Compound 007, (6aR,6bS,7S,8aS,8bS,10R,11aR,12aS,12bS)-10-(4-((4-aminobenzo[d]oxazol-7-yl)methyl)phenyl)-7-hydroxy-8b-(2-hydroxyacetyl)-6a,8a-dimethyl-6a,6b,7,8,8a,8b,11a,12,12a,12b-decahydro-1H-naphtho[2′,1′:4,5]indeno[1,2d][1,3]dioxolan-4(2H)-one], the midpoint of the response, the EC50, lay at 17.1 nM.
